According to paper PMC11868595, “Safety, pharmacokinetics and efficacy of HA121-28 in patients with advanced solid tumors and RET fusion-positive non-small-cell lung cancer: a multicenter, open-label, single-arm phase 1/2 trial” (Signal Transduction and Targeted Therapy, 2025):

Tested on: patients with advanced solid tumors
Assay: Phase 1 trial: adverse events (CTCAE), DLT and MTD
Type: in vivo, human
Description: The phase 1 trial was a two-part, multicenter, open-label, nonrandomized study to evaluate the safety and preliminary efficacy of HA121-28.
Safety, tolerability, and PK of HA121-28 was assessed in dose-escalation part. The single-patient accelerated titration was carried out at 25 mg and 50 mg; then, the dose escalation proceeded according to a “3 + 3” design in dose range of 100 to 800 mg. Escalation to a higher dose level was considered by the satisfactory review of safety results from the previous lower dose during the first cycle.
The dose-expansion part aims to further access the safety and efficacy of HA121-28 at the selected doses based on data from the dose-escalation part. The RP2D was determined by investigators in view of a thorough review of safety, PK, and efficacy results.
In phase 1 trial, during the dose-escalation part, patients first administered HA121-28 in a single ascending dose under the fasted state, then followed up for seven days. Then, patients received ascending doses of HA121-28 (q.d.) on a 21-day on and 7-day off treatment scheme for a 28-day cycle. For patients deemed beneficial from the treatment by investigators, treatment could remain until disease progression, or they discontinued from the study. In the dose-expansion part of phase 1, as well as phase 2, patients received HA121-28 (q.d.) at the selected doses on a 21-day on and 7-day off treatment scheme until disease progression, or they discontinued from the study.
Treatment-emergent adverse events (TEAEs) were documented during the entire study period. The predefined adverse event of special interest (AESI) was ≥ grade 3 prolonged QT interval. Tumor imaging was performed using contrast-enhanced computed tomography or magnetic resonance imaging at screening, Day 28 of the first cycle, then approximately every eight weeks till the end of the study for phase 1; in phase 2, imaging was scheduled at screening, and every eight weeks during the first 40 weeks, followed by every 12 weeks for the rest of the study period. RECIST 1.1 was used by the independent review committee or investigators for assessment of tumor response. After the original assessment, a repeated assessment was required around four weeks later to confirm a complete or partial response.
The primary endpoints of phase 1 were to investigate the MTD, dose-limiting toxicities, and the incidence and severity of TEAEs. Each TEAE was graded according to the Common Terminology Criteria for Adverse Events (CTCAE, version 5.0) and coded by Medical Dictionary for Regulatory Activities (MedDRA, version 21.0). The secondary endpoints included calculating PK parameters, assessing the ORR and DCR at the recommended dose by investigators as per RECIST 1.1. The exploratory endpoint was PFS.
If grade 2 or higher toxicity related to the study drug occurs in Groups 1 and 2 (as determined by the investigator), dose escalation will proceed using a 3+3 design starting from that dose level. If no DLT is observed at the 800 mg/d dose level after dose escalation, a meeting of investigators will be convened to decide whether to proceed with further dose escalation based on the available PK data, safety, and tolerability information.
5. Definition of DLT and MTD
The following events related to the study drug (including those that are definitely related, highly likely to be related, and possibly related):
(1) Grade 4 hematologic toxicity or grade 3 neutropenia accompanied by a fever of 38.5℃ or higher, or grade 3 thrombocytopenia accompanied by severe bleeding.
(2) Patients who discontinued the medication for more than 7 days due to unresolved toxicity reactions or who discontinued the medication more than twice due to toxicity […]
(3) In the context of supportive treatment, diarrhea of grade 2 lasting more than 7 days, or grade 3 diarrhea lasting more than 3 days.

COc1cc2c(Nc3ccc(Br)cc3F)ncnc2cc1OCCCCN(C)C.Cl.Cl [HA121-28, N-(4-bromo-2-fluorophenyl)-7-(4-(dimethylamino)butoxy)-6-methoxy quinazolin-4-amine dihydrochloride]
2 (2.5) No. (%): Serious TEAE: Hemoptysis (Phase 1, 450 mg (N=79)) | Serious TEAE: Seizure (Phase 1, 450 mg (N=79)) | Serious TRAE: Hemoptysis (Phase 1, 450 mg (N=79))
15 (19.0) No. (%): Serious TEAE: Any (Phase 1, 450 mg (N=79))
0 No. (%): Serious TEAE: Acute pancreatitis (Phase 1, 450 mg (N=79)) | Serious TEAE: Anal abscess (Phase 1, 450 mg (N=79)) | Serious TEAE: Aortic intramural hematoma (Phase 1, 450 mg (N=79)) | Serious TEAE: Blood bilirubin increased (Phase 1, 450 mg (N=79)) | Serious TEAE: Blood creatinine increased (Phase 1, 450 mg (N=79)) | Serious TEAE: COVID-19 (Phase 1, 450 mg (N=79)) | Serious TEAE: Coronary artery atherosclerosis (Phase 1, 450 mg (N=79)) | Serious TEAE: Diarrhea (Phase 1, 450 mg (N=79)) | Serious TEAE: Drug eruption (Phase 1, 450 mg (N=79)) | Serious TEAE: Dyspnea (Phase 1, 450 mg (N=79)) | Serious TEAE: Embolism (Phase 1, 450 mg (N=79)) | Serious TEAE: Erythema multiforme (Phase 1, 450 mg (N=79)) | Serious TEAE: Headache (Phase 1, 450 mg (N=79)) | Serious TEAE: Hydronephrosis (Phase 1, 450 mg (N=79)) | Serious TEAE: Hypoalbuminemia (Phase 1, 450 mg (N=79)) | Serious TEAE: Intra-abdominal fluid collection (Phase 1, 450 mg (N=79)) | Serious TEAE: Intracranial tumor hemorrhage (Phase 1, 450 mg (N=79)) | Serious TEAE: Liver injury (Phase 1, 450 mg (N=79)) | Serious TEAE: Lung adenocarcinoma (Phase 1, 450 mg (N=79)) | Serious TEAE: Nausea (Phase 1, 450 mg (N=79)) | Serious TEAE: Nephrolithiasis (Phase 1, 450 mg (N=79)) | Serious TEAE: Platelet counts decreased (Phase 1, 450 mg (N=79)) | Serious TEAE: Pneumonia (Phase 1, 450 mg (N=79)) | Serious TEAE: Prolonged QT interval (Phase 1, 450 mg (N=79)) | Serious TEAE: Pulmonary embolism (Phase 1, 450 mg (N=79)) | Serious TEAE: Pyrexia (Phase 1, 450 mg (N=79)) | Serious TEAE: Respiratory failure (Phase 1, 450 mg (N=79)) | Serious TEAE: Septic shock (Phase 1, 450 mg (N=79)) | Serious TEAE: Sudden cardiac arrest (Phase 1, 450 mg (N=79)) | Serious TEAE: Sudden death (Phase 1, 450 mg (N=79)) | Serious TEAE: Ventricular tachycardia (Phase 1, 450 mg (N=79)) | Serious TEAE: Vomiting (Phase 1, 450 mg (N=79)) | Serious TEAE: Weight loss (Phase 1, 450 mg (N=79)) | Serious TRAE: ALT increased (Phase 1, 450 mg (N=79)) | Serious TRAE: AST increased (Phase 1, 450 mg (N=79)) | Serious TRAE: Abdominal Pain (Phase 1, 450 mg (N=79)) | Serious TRAE: Abdominal distension (Phase 1, 450 mg (N=79)) | Serious TRAE: Acute cholecystitis (Phase 1, 450 mg (N=79)) | Serious TRAE: Acute pancreatitis (Phase 1, 450 mg (N=79)) | Serious TRAE: Anal abscess (Phase 1, 450 mg (N=79)) | Serious TRAE: Aortic intramural hematoma (Phase 1, 450 mg (N=79)) | Serious TRAE: Blood bilirubin increased (Phase 1, 450 mg (N=79)) | Serious TRAE: Blood creatinine increased (Phase 1, 450 mg (N=79)) | Serious TRAE: COVID-19 (Phase 1, 450 mg (N=79)) | Serious TRAE: Cardiac tamponade (Phase 1, 450 mg (N=79)) | Serious TRAE: Coronary artery atherosclerosis (Phase 1, 450 mg (N=79)) | Serious TRAE: Death (Phase 1, 450 mg (N=79)) | Serious TRAE: Diarrhea (Phase 1, 450 mg (N=79)) | Serious TRAE: Drug eruption (Phase 1, 450 mg (N=79)) | Serious TRAE: Dyspnea (Phase 1, 450 mg (N=79)) | Serious TRAE: Embolism (Phase 1, 450 mg (N=79)) | Serious TRAE: Erythema multiforme (Phase 1, 450 mg (N=79)) | Serious TRAE: Headache (Phase 1, 450 mg (N=79)) | Serious TRAE: Hydronephrosis (Phase 1, 450 mg (N=79)) | Serious TRAE: Hypoalbuminemia (Phase 1, 450 mg (N=79)) | Serious TRAE: Intra-abdominal fluid collection (Phase 1, 450 mg (N=79)) | Serious TRAE: Intracranial tumor hemorrhage (Phase 1, 450 mg (N=79)) | Serious TRAE: Liver injury (Phase 1, 450 mg (N=79)) | Serious TRAE: Lung adenocarcinoma (Phase 1, 450 mg (N=79)) | Serious TRAE: Malignant neoplasm progression (Phase 1, 450 mg (N=79)) | Serious TRAE: Multiple organ dysfunction syndrome (Phase 1, 450 mg (N=79)) | Serious TRAE: Nausea (Phase 1, 450 mg (N=79)) | Serious TRAE: Nephrolithiasis (Phase 1, 450 mg (N=79)) | Serious TRAE: Platelet counts decreased (Phase 1, 450 mg (N=79)) | Serious TRAE: Pleural effusion (Phase 1, 450 mg (N=79)) | Serious TRAE: Pneumonia (Phase 1, 450 mg (N=79)) | Serious TRAE: Prolonged QT interval (Phase 1, 450 mg (N=79)) | Serious TRAE: Pulmonary embolism (Phase 1, 450 mg (N=79)) | Serious TRAE: Pyrexia (Phase 1, 450 mg (N=79)) | Serious TRAE: Respiratory failure (Phase 1, 450 mg (N=79)) | Serious TRAE: Seizure (Phase 1, 450 mg (N=79)) | Serious TRAE: Septic shock (Phase 1, 450 mg (N=79)) | Serious TRAE: Sudden cardiac arrest (Phase 1, 450 mg (N=79)) | Serious TRAE: Sudden death (Phase 1, 450 mg (N=79)) | Serious TRAE: Ventricular tachycardia (Phase 1, 450 mg (N=79)) | Serious TRAE: Vomiting (Phase 1, 450 mg (N=79)) | Serious TRAE: Weight loss (Phase 1, 450 mg (N=79)) | Serious TEAE: Abdominal Pain (Phase 1, 600 mg (N=64)) | Serious TEAE: Abdominal distension (Phase 1, 600 mg (N=64)) | Serious TEAE: Acute cholecystitis (Phase 1, 600 mg (N=64)) | Serious TEAE: Aortic intramural hematoma (Phase 1, 600 mg (N=64)) | Serious TEAE: Arrhythmia (Phase 1, 600 mg (N=64)) | Serious TEAE: COVID-19 (Phase 1, 600 mg (N=64))
9 (11.4) No. (%): Serious TRAE: Any (Phase 1, 450 mg (N=79))
1 (1.6) No. (%): Serious TEAE: Acute pancreatitis (Phase 1, 600 mg (N=64)) | Serious TEAE: Anal abscess (Phase 1, 600 mg (N=64)) | Serious TEAE: Blood bilirubin increased (Phase 1, 600 mg (N=64)) | Serious TEAE: Blood creatinine increased (Phase 1, 600 mg (N=64))
17 (26.6) No. (%): Serious TEAE: Any (Phase 1, 600 mg (N=64))
1 (1.3) No. (%): Serious TEAE: Arrhythmia (Phase 1, 450 mg (N=79)) | Serious TEAE: Cardiac tamponade (Phase 1, 450 mg (N=79)) | Serious TEAE: Death (Phase 1, 450 mg (N=79)) | Serious TEAE: Hypertension (Phase 1, 450 mg (N=79)) | Serious TEAE: Intestinal obstruction (Phase 1, 450 mg (N=79)) | Serious TEAE: Malignant neoplasm progression (Phase 1, 450 mg (N=79)) | Serious TEAE: Multiple organ dysfunction syndrome (Phase 1, 450 mg (N=79)) | Serious TEAE: Pleural effusion (Phase 1, 450 mg (N=79)) | Serious TEAE: Pneumonitis (Phase 1, 450 mg (N=79)) | Serious TEAE: Rash (Phase 1, 450 mg (N=79)) | Serious TEAE: Rectal hemorrhage (Phase 1, 450 mg (N=79)) | Serious TEAE: Upper respiratory tract infection (Phase 1, 450 mg (N=79)) | Serious TRAE: Arrhythmia (Phase 1, 450 mg (N=79)) | Serious TRAE: Hypertension (Phase 1, 450 mg (N=79)) | Serious TRAE: Intestinal obstruction (Phase 1, 450 mg (N=79)) | Serious TRAE: Pneumonitis (Phase 1, 450 mg (N=79)) | Serious TRAE: Rash (Phase 1, 450 mg (N=79)) | Serious TRAE: Rectal hemorrhage (Phase 1, 450 mg (N=79)) | Serious TRAE: Upper respiratory tract infection (Phase 1, 450 mg (N=79))
2 (3.1) No. (%): Serious TEAE: ALT increased (Phase 1, 600 mg (N=64)) | Serious TEAE: AST increased (Phase 1, 600 mg (N=64))
